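Test compounds were applied to cells in 96-well plates for 48 hours at 5 doses. The concentration for 50% growth inhibition is given as GI50. TGI marks complete inhibition of growth.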
Columns and labels:
Assay in all cases: NCI-60 cell line screen, 48 h
LOX IMVI melanoma = test system: LOX IMVI melanoma
SW-620 colon = test system: SW-620 colon
BT-549 breast = test system: BT-549 breast
OVCAR-8 ovarian = test system: OVCAR-8 ovarian
NCI-H460 lung = test system: NCI-H460 lung
HCT-116 colon = test system: HCT-116 colon
SF-539 CNS = test system: SF-539 CNS
SK-OV-3 ovarian = test system: SK-OV-3 ovarian
PC-3 prostate = test system: PC-3 prostate
SNB-19 CNS = test system: SNB-19 CNS
HT29 colon = test system: HT29 colon
SK-MEL-5 melanoma = test system: SK-MEL-5 melanoma
HCC-2998 colon = test system: HCC-2998 colon
ACHN renal = test system: ACHN renal
CAKI-1 renal = test system: CAKI-1 renal
SR leukemia = test system: SR leukemia
SF-295 CNS = test system: SF-295 CNS
HOP-92 NSCLC = test system: HOP-92 NSCLC
COLO 205 colon = test system: COLO 205 colon
TK-10 renal = test system: TK-10 renal
NCI-H226 lung = test system: NCI-H226 lung
UO-31 renal = test system: UO-31 renal
U251 CNS = test system: U251 CNS
HCT-15 colon = test system: HCT-15 colon
RXF 393 renal = test system: RXF 393 renal
UACC-257 melanoma = test system: UACC-257 melanoma
OVCAR-5 ovarian = test system: OVCAR-5 ovarian
SNB-75 CNS = test system: SNB-75 CNS
KM12 colon = test system: KM12 colon
MDA-MB-231 breast = test system: MDA-MB-231 breast
HOP-62 NSCLC = test system: HOP-62 NSCLC
786-0 renal = test system: 786-0 renal
HL-60(TB) leukemia = test system: HL-60(TB) leukemia
A498 renal = test system: A498 renal
NCI-H522 lung = test system: NCI-H522 lung
DU-145 prostate = test system: DU-145 prostate
CCRF-CEM leukemia = test system: CCRF-CEM leukemia
MALME-3M melanoma = test system: MALME-3M melanoma
MDA-MB-435 = test system: MDA-MB-435
SK-MEL-2 melanoma = test system: SK-MEL-2 melanoma
IGROV1 ovarian = test system: IGROV1 ovarian
MOLT-4 leukemia = test system: MOLT-4 leukemia
HS 578T breast = test system: HS 578T breast
OVCAR-4 ovarian = test system: OVCAR-4 ovarian
SK-MEL-28 melanoma = test system: SK-MEL-28 melanoma
NCI-H23 lung = test system: NCI-H23 lung
EKVX NSCLC = test system: EKVX NSCLC
K-562 leukemia = test system: K-562 leukemia
UACC-62 melanoma = test system: UACC-62 melanoma
SN12C renal = test system: SN12C renal
RPMI-8226 leukemia = test system: RPMI-8226 leukemia
T-47D breast = test system: T-47D breast
A549 NSCLC = test system: A549 NSCLC
MCF7 breast = test system: MCF7 breast
SF-268 CNS = test system: SF-268 CNS

Oc1ccc(CSc2nnc(-c3ccccc3)o2)c2cccnc12
GI50 (LOX IMVI melanoma): 1.56 µM | TGI (LOX IMVI melanoma): 11.3 µM | GI50 (SW-620 colon): 2.57 µM | TGI (SW-620 colon): > 100 µM | GI50 (BT-549 breast): 0.923 µM | TGI (BT-549 breast): > 100 µM | GI50 (OVCAR-8 ovarian): 1.77 µM | TGI (OVCAR-8 ovarian): > 100 µM | GI50 (NCI-H460 lung): 0.527 µM | TGI (NCI-H460 lung): > 100 µM | GI50 (HCT-116 colon): 1.65 µM | TGI (HCT-116 colon): > 100 µM | GI50 (SF-539 CNS): 1.49 µM | TGI (SF-539 CNS): 15.8 µM | GI50 (SK-OV-3 ovarian): 2.87 µM | TGI (SK-OV-3 ovarian): 15 µM | GI50 (PC-3 prostate): 1.03 µM | TGI (PC-3 prostate): > 100 µM | GI50 (SNB-19 CNS): 0.817 µM | TGI (SNB-19 CNS): 19.3 µM | GI50 (HT29 colon): 6.97 µM | TGI (HT29 colon): > 100 µM | GI50 (SK-MEL-5 melanoma): 1.83 µM | TGI (SK-MEL-5 melanoma): 6.4 µM | GI50 (HCC-2998 colon): 2.26 µM | TGI (HCC-2998 colon): > 100 µM | GI50 (ACHN renal): 2.03 µM | TGI (ACHN renal): 5.89 µM | GI50 (CAKI-1 renal): 2.87 µM | TGI (CAKI-1 renal): > 100 µM | GI50 (SR leukemia): 0.873 µM | TGI (SR leukemia): > 100 µM | GI50 (SF-295 CNS): 1.39 µM | TGI (SF-295 CNS): 21 µM | GI50 (HOP-92 NSCLC): 0.499 µM | TGI (HOP-92 NSCLC): 5.36 µM | GI50 (COLO 205 colon): 59.3 µM | TGI (COLO 205 colon): > 100 µM | GI50 (TK-10 renal): 2.52 µM | TGI (TK-10 renal): 9.86 µM | GI50 (NCI-H226 lung): 3.78 µM | TGI (NCI-H226 lung): > 100 µM | GI50 (UO-31 renal): 1.56 µM | TGI (UO-31 renal): 7.47 µM | GI50 (U251 CNS): 0.783 µM | TGI (U251 CNS): > 100 µM | GI50 (HCT-15 colon): 0.797 µM | TGI (HCT-15 colon): > 100 µM | GI50 (RXF 393 renal): 3.27 µM | TGI (RXF 393 renal): 97.2 µM | GI50 (UACC-257 melanoma): 2.62 µM | TGI (UACC-257 melanoma): 8.92 µM | GI50 (OVCAR-5 ovarian): 6.65 µM | TGI (OVCAR-5 ovarian): > 100 µM | GI50 (SNB-75 CNS): 1.47 µM | TGI (SNB-75 CNS): 15.6 µM | GI50 (KM12 colon): 0.724 µM | TGI (KM12 colon): > 100 µM | GI50 (MDA-MB-231 breast): 4.01 µM | TGI (MDA-MB-231 breast): > 100 µM | GI50 (HOP-62 NSCLC): 2.33 µM | TGI (HOP-62 NSCLC): 30.6 µM | GI50 (786-0 renal): 3.14 µM | TGI (786-0 renal): 11.9 µM | GI50 (HL-60(TB) leukemia): 1.39 µM | TGI (HL-60(TB) leukemia): 6.62 µM | GI50 (A498 renal): 4.1 µM | TGI (A498 renal): > 100 µM | GI50 (NCI-H522 lung): 2.33 µM | TGI (NCI-H522 lung): > 100 µM | GI50 (DU-145 prostate): 3.41 µM | TGI (DU-145 prostate): > 100 µM | GI50 (CCRF-CEM leukemia): 1.13 µM | TGI (CCRF-CEM leukemia): > 100 µM | GI50 (MALME-3M melanoma): 2.8 µM | TGI (MALME-3M melanoma): > 100 µM | GI50 (MDA-MB-435): 1.08 µM | TGI (MDA-MB-435): > 100 µM | GI50 (SK-MEL-2 melanoma): 2.55 µM | TGI (SK-MEL-2 melanoma): 29.8 µM | GI50 (IGROV1 ovarian): 2.42 µM | TGI (IGROV1 ovarian): > 100 µM | GI50 (MOLT-4 leukemia): 2.03 µM | TGI (MOLT-4 leukemia): > 100 µM | GI50 (HS 578T breast): 0.721 µM | TGI (HS 578T breast): > 100 µM | GI50 (OVCAR-4 ovarian): 4.34 µM | TGI (OVCAR-4 ovarian): > 100 µM | GI50 (SK-MEL-28 melanoma): 2.29 µM | TGI (SK-MEL-28 melanoma): > 100 µM | GI50 (NCI-H23 lung): 2.44 µM | TGI (NCI-H23 lung): 14 µM | GI50 (EKVX NSCLC): 2.62 µM | TGI (EKVX NSCLC): > 100 µM | GI50 (K-562 leukemia): 2.05 µM | TGI (K-562 leukemia): > 100 µM | GI50 (UACC-62 melanoma): 2.19 µM | TGI (UACC-62 melanoma): 6.01 µM | GI50 (SN12C renal): 2.64 µM | TGI (SN12C renal): > 100 µM | GI50 (RPMI-8226 leukemia): 0.772 µM | TGI (RPMI-8226 leukemia): > 100 µM | GI50 (T-47D breast): 2.55 µM | TGI (T-47D breast): > 100 µM | GI50 (A549 NSCLC): 2.69 µM | TGI (A549 NSCLC): > 100 µM | GI50 (MCF7 breast): 2.45 µM | TGI (MCF7 breast): > 100 µM | GI50 (SF-268 CNS): 0.92 µM | TGI (SF-268 CNS): > 100 µM

Source: PubChem BioAssay (NCI)
